Consider 1 substance from publication PMC5910287 (ACS chemical biology, 2018).

This test concerns L. lactis HP. The test can be described thus: Minimal inhibitory concentrations determined in liquid media. The settings on record: serial two-fold dilution, Fig. S12. The format is cell-based, Lactococcus lactis.

In turn, lacticin 481 [wt-lacticin 481] yielded a Minimal inhibitory concentration of 0.39 µM.
